Key:
A. donax explants = test: Phosphinothricin selection of explants with or without Agrobacterium tumefaciens cocultivation (Example 3); type: cell-based, Arundo donax L.; settings: 10 mg/l
Description: Cross-sectional segment of immature A. donax inflorescence were prepared and cultivated as described in Example 2. The totipotent tissue was cocultivated with Agrobacterium tumefaciens carrying plasmid pMSF3022, which carried the bar gene for positive selection in plant cells. The gene confers resistance to the antibiotic/herbicide phosphinothricin.
Cocultivation was carried out in 6 ml. of liquid primary culture medium for four days in the dark at room temperature. Explants were then rinsed with liquid medium and placed on solid selective and non-selective control medium containing the antibiotic/herbicide phosphinothricine at 10 mg/l. All medium contained tidarcillin at 400 mg/l to eliminate residual A. tumefaciens. Controls includes explants incubated without A. tumefaciens. […] This can be contrasted with control explants (which were not contacted with A. tumefaciens) that were killed by 10 mg/l of phosphinothricin (FIG. 3A). Also shown are control explants that have developed callus in the absence of phosphinothricin (FIG. 3B), and cocultivated explants that have developed callus in the absence of phosphinothricin (FIG. 3D).

[1] = system: cloned A. donax plants (roots); test: Trichloroethene challenge of cloned plants in phytoreactor (Example 4); type: in vivo, Arundo donax L.; settings: 0.25 mM in hydroponic solution; after a recovery period of 3 to 4 weeks
Description: Sustained titopotent cultures of A donax were grown as described in Example 2, and cloned plants derived from the titopotent tissues were established in a standard liquid hydroponic solution in plastic tubs (Shown in FIG. 4 A). In one phytoreactor tub, trichloroethene (trichloroethylene) was added to a concentration of 0.25 mM. This was believed to be a high concentration of the organic material, because the allowable EPA concentration is 0.005 mg/l.

Row | SMILES | effect on control explants (not contacted with A. tumefaciens) (A. donax explants) | state of roots of challenged plants [1]
1 | CP(=O)(O)CC[C@H](N)C(=O)O [phosphinothricin] | killed | –
2 | ClC=C(Cl)Cl [trichloroethene] | – | fully recovered
